Biological target: T1, recombinant human pancreatic GLK (Homo sapiens, UniProt P35557)
T1 sequence (P35557 1-465): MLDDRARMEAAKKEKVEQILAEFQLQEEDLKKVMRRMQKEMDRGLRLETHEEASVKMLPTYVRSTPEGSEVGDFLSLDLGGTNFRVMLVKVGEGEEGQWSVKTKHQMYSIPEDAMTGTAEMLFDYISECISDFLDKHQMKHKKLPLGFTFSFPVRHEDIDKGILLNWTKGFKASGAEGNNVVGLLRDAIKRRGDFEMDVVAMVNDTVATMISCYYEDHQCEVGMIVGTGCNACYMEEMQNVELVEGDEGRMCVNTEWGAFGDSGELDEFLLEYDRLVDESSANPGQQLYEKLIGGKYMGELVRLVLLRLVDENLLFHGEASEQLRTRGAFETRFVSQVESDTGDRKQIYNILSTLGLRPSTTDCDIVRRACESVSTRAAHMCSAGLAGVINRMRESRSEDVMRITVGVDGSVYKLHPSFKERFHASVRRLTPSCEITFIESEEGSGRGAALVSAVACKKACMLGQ
Assay: biochemical

SMILES | EC50 [nM]
Cc1ccc(NC(=O)[C@H](COC(C)C)Oc2ncnc3c2cnn3-c2nccn2C)nc1 [Example 211, (2S)-3-isopropoxy-2-(1-(1-methyl-1H-imidazol-2-yl)-1H-pyrazolo[3,4-d]pyrimidin-4-yloxy)-N-(5-methylpyridin-2-yl)propanamide] | 1100
O=C(Nc1ccc(Cl)cn1)[C@H](CCCO)Oc1ncnc2c1cnn2-c1ncccc1Cl [Example 212, (2S)—N-(5-chloropyridin-2-yl)-2-(1-(3-chloropyridin-2-yl)-1H-pyrazolo[3,4-d]pyrimidin-4-yloxy)-5-hydroxypentanamide] | 490
N#Cc1ccc(NC(=O)[C@H](CCCO)Oc2ncnc3c2cnn3-c2ncccc2Cl)nc1 [Example 213, (2S)-2-(1-(3-chloropyridin-2-yl)-1H-pyrazolo[3,4-d]pyrimidin-4-yloxy)-N-(5-cyanopyridin-2-yl)-5-hydroxypentanamide] | 1100
CCOC[C@H](Oc1ncnc2c1cnn2-c1cccc(Cl)c1Cl)C(=O)Nc1ccc(C#N)cn1 [Example 214, (2S)—N-(5-cyanopyridin-2-yl)-2-(1-(2,3-dichlorophenyl)-1H-pyrazolo[3,4-d]pyrimidin-4-yloxy)-3-ethoxypropanamide] | 320
O=C(Nc1ccc(F)cn1)[C@H](CN1CC(O)C1)Oc1ncnc2c1cnn2-c1ccccc1Cl [Example 215, (2S)-2-[1-(2-chlorophenyl)pyrazolo[4,5-e]pyrimidin-4-yl]oxy-N-(5-fluoro-2-pyridyl)-3-(3-hydroxyazetidin-1-yl)propanamide] | 229
C[C@H](CO)OC[C@H](Oc1ncnc2c1cnn2-c1c(Cl)cccc1C#N)C(=O)Nc1ccc(Cl)cn1 [Example 216, (2S)-2-[1-(2-chloro-6-cyano-phenyl)pyrazolo[4,5-e]pyrimidin-4-yl]oxy-N-(5-chloro-2-pyridyl)-3-[(1R)-2-hydroxy-1-methyl-ethoxy]propanamide] | 163
O=C(Nc1ccc(F)cn1)[C@H](COCCO)Oc1ncnc2c1cnn2-c1c(Cl)cccc1Cl [Example 218, (2S)-2-[1-(2,6-dichlorophenyl)pyrazolo[4,5-e]pyrimidin-4-yl]oxy-N-(5-fluoro-2-pyridyl)-3-(2-hydroxyethoxy)propanamide] | 215
Cc1cnc(NC(=O)[C@H](CN2CC(O)C2)Oc2ncnc3c2cnn3-c2ccccc2Cl)cn1 [Example 219, (2S)-2-[1-(2-chlorophenyl)pyrazolo[4,5-e]pyrimidin-4-yl]oxy-3-(3-hydroxyazetidin-1-yl)-N-(5-methylpyrazin-2-yl)propanamide] | 280
N#Cc1cccc(Cl)c1-n1ncc2c(O[C@@H](CN3CCC3)C(=O)Nc3ccccn3)ncnc21 [Example 221, (2S)-3-(azetidin-1-yl)-2-[1-(2-chloro-6-cyano-phenyl)pyrazolo[3,4-d]pyrimidin-4-yl]oxy-N-(2-pyridyl)propanamide] | 310
O=C(Nc1ccccn1)[C@H](CN1CC(O)C1)Oc1ncnc2c1cnn2-c1c(F)cccc1Cl [Example 222, (2S)-2-[1-(2-chloro-6-fluoro-phenyl)pyrazolo[3,4-d]pyrimidin-4-yl]oxy-3-(3-hydroxyazetidin-1-yl)-N-(2-pyridyl)propanamide] | 140
N#Cc1ccc(NC(=O)[C@H](CN2CC(O)C2)Oc2ncnc3c2cnn3-c2ccccc2Cl)nc1 [Example 223, (2S)-2-[1-(2-chlorophenyl)pyrazolo[3,4-d]pyrimidin-4-yl]oxy-N-(5-cyano-2-pyridyl)-3-(3-hydroxyazetidin-1-yl)propanamide] | 310
N#Cc1ccc(NC(=O)[C@H](CN2CC(O)C2)Oc2ncnc3c2cnn3-c2c(Cl)cccc2C#N)nc1 [Example 224, (2S)-2-[1-(2-chloro-6-cyano-phenyl)pyrazolo[3,4-d]pyrimidin-4-yl]oxy-N-(5-cyano-2-pyridyl)-3-(3-hydroxyazetidin-1-yl)propanamide] | 510
O=C(Nc1ccccn1)[C@H](CN1CC(O)C1)Oc1ncnc2c1cnn2-c1ccccc1Cl [Example 225, (2S)-2-[1-(2-chlorophenyl)pyrazolo[3,4-d]pyrimidin-4-yl]oxy-3-(3-hydroxyazetidin-1-yl)-N-(2-pyridyl)propanamide] | 220
O=C(Nc1ccc(Cl)cn1)[C@H](CN1CC(O)C1)Oc1ncnc2c1cnn2-c1ccccc1Cl [Example 226, (2S)-2-[1-(2-chlorophenyl)pyrazolo[3,4-d]pyrimidin-4-yl]oxy-N-(5-chloro-2-pyridyl)-3-(3-hydroxyazetidin-1-yl)propanamide] | 130
Cc1ccc(NC(=O)[C@H](CO[C@H](C)CO)Oc2ncnc3c2cnn3-c2cscc2C)nc1 [Example 227, (2S)-3-[(1R)-2-hydroxy-1-methyl-ethoxy]-N-(5-methyl-2-pyridyl)-2-[1-(4-methyl-3-thienyl)pyrazolo[3,4-d]pyrimidin-4-yl]oxy-propanamide] | 320
O=C(Nc1ccccn1)[C@H](CN1CC(CO)C1)Oc1ncnc2c1cnn2-c1ccccc1Cl [Example 228, (2S)-2-[1-(2-chlorophenyl)pyrazolo[3,4-d]pyrimidin-4-yl]oxy-3-[3-(hydroxymethyl)azetidin-1-yl]-N-(2-pyridyl)propanamide] | 460
O=C(Nc1ccc(F)cn1)[C@H](CN1CC(O)C1)Oc1ncnc2c1cnn2-c1c(F)cccc1Cl [Example 229, (2S)-2-[1-(2-chloro-6-fluoro-phenyl)pyrazolo[3,4-d]pyrimidin-4-yl]oxy-N-(5-fluoro-2-pyridyl)-3-(3-hydroxyazetidin-1-yl)propanamide] | 110
O=C(Nc1ccc(F)cn1)[C@H](CN1CC(O)C1)Oc1ncnc2c1cnn2-c1c(Cl)cccc1Cl [Example 230, (2S)-2-[1-(2,6-dichlorophenyl)pyrazolo[3,4-d]pyrimidin-4-yl]oxy-N-(5-fluoro-2-pyridyl)-3-(3-hydroxyazetidin-1-yl)propanamide] | 110
C[C@H](CO)OC[C@H](Oc1ncnc2c1cnn2-c1c(Cl)cccc1C#N)C(=O)Nc1ccccn1 [Example 231, (2S)-2-[1-(2-chloro-6-cyano-phenyl)pyrazolo[3,4-d]pyrimidin-4-yl]oxy-3-[(1R)-2-hydroxy-1-methyl-ethoxy]-N-(2-pyridyl)propanamide] | 260
Cc1ccc(NC(=O)[C@H](CO[C@H](C)CO)Oc2ncnc3c2cnn3-c2ncccc2Cl)nc1 [Example 232, (2S)-2-[1-(3-chloro-2-pyridyl)pyrazolo[3,4-d]pyrimidin-4-yl]oxy-3-[(1R)-2-hydroxy-1-methyl-ethoxy]-N-(5-methyl-2-pyridyl)propanamide] | 540
O=C(Nc1ccccn1)[C@H](CN1CC(O)C1)Oc1ncnc2c1cnn2-c1c(Cl)cccc1Cl [Example 233, (2S)-2-[1-(2,6-dichlorophenyl)pyrazolo[3,4-d]pyrimidin-4-yl]oxy-3-(3-hydroxyazetidin-1-yl)-N-(2-pyridyl)propanamide] | 210
N#Cc1ccc(NC(=O)[C@H](CN2CC(O)C2)Oc2ncnc3c2cnn3-c2c(Cl)cccc2Cl)nc1 [Example 234, (2S)—N-(5-cyano-2-pyridyl)-2-[1-(2,6-dichlorophenyl)pyrazolo[3,4-d]pyrimidin-4-yl]oxy-3-(3-hydroxyazetidin-1-yl)propanamide] | 210
N#Cc1ccc(NC(=O)[C@H](COCCO)Oc2ncnc3c2cnn3-c2c(Cl)cccc2Cl)nc1 [Example 235, (2S)—N-(5-cyano-2-pyridyl)-2-[1-(2,6-dichlorophenyl)pyrazolo[3,4-d]pyrimidin-4-yl]oxy-3-(2-hydroxyethoxy)propanamide] | 400
C[C@H](CO)OC[C@H](Oc1ncnc2c1cnn2-c1c(C#N)cccc1C#N)C(=O)Nc1ccc(Cl)cn1 [Example 236, (2S)—N-(5-chloro-2-pyridyl)-2-[1-(2,6-dicyanophenyl)pyrazolo[3,4-d]pyrimidin-4-yl]oxy-3-[(1R)-2-hydroxy-1-methyl-ethoxy]propanamide] | 740
N#Cc1cccc(Cl)c1-n1ncc2c(O[C@@H](COCCO)C(=O)Nc3ccc(F)cn3)ncnc21 [Example 237, (2S)-2-[1-(2-chloro-6-cyano-phenyl)pyrazolo[3,4-d]pyrimidin-4-yl]oxy-N-(5-fluoro-2-pyridyl)-3-(2-hydroxyethoxy)propanamide] | 470
N#Cc1cccc(Cl)c1-n1ncc2c(O[C@@H](COCCO)C(=O)Nc3ccccn3)ncnc21 [Example 238, (2S)-2-[1-(2-chloro-6-cyano-phenyl)pyrazolo[3,4-d]pyrimidin-4-yl]oxy-3-(2-hydroxyethoxy)-N-(2-pyridyl)propanamide] | 420
Cc1cnc(NC(=O)[C@H](CN2CC(O)C2)Oc2ncnc3c2cnn3-c2c(Cl)cccc2C#N)cn1 [Example 239, (2S)-2-[1-(2-chloro-6-cyano-phenyl)pyrazolo[3,4-d]pyrimidin-4-yl]oxy-3-(3-hydroxyazetidin-1-yl)-N-(5-methylpyrazin-2-yl)propanamide] | 490
N#Cc1cccc(Cl)c1-n1ncc2c(O[C@@H](CN3CC(O)C3)C(=O)Nc3ccc(Cl)cn3)ncnc21 [Example 240, (2S)-2-[1-(2-chloro-6-cyano-phenyl)pyrazolo[3,4-d]pyrimidin-4-yl]oxy-N-(5-chloro-2-pyridyl)-3-(3-hydroxyazetidin-1-yl)propanamide] | 450
O=C(Nc1ccccn1)[C@H](CN1CC(O)C1)Oc1ncnc2c1cnn2-c1ncccc1Cl [Example 241, (2S)-2-[1-(3-chloro-2-pyridyl)pyrazolo[3,4-d]pyrimidin-4-yl]oxy-3-(3-hydroxyazetidin-1-yl)-N-(2-pyridyl)propanamide] | 350

Reference: US8143263B2, “Therapeutic agents” (Astrazeneca AB, priority 2008, dated 2012)
